For this assay, the target named is T1, mouse MRGPRB2 (Mus musculus, UniProt Q3KNA1).
T1 construct: expressed in transfected cells; host or cells: 1321N1 astrocytoma cells; plasmid pLVX-IRES-MRGPRB2-mCherry (Addgene #213961)
T1 sequence (Q3KNA1 1-338): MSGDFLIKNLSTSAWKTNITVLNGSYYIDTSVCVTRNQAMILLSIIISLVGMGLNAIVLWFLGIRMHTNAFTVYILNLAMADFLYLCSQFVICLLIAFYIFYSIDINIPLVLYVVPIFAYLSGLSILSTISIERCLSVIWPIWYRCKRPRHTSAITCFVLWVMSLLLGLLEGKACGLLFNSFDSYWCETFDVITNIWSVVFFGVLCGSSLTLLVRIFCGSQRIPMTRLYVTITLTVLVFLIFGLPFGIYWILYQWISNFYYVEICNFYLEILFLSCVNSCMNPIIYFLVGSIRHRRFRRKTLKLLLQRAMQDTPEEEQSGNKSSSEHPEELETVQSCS
Description: Ca2+ assay, 1321N1 astrocytoma cells expressing MRGPRB2. The format is cell-based. The protocol:
Therefore, we investigated whether the new MRGPRX2 antagonists could also block MRGPRB2. To this end, we used recombinant 1321N1 astrocytoma cells that stably expressed MRGPRB2, employing Ca^2+ assays, and CST-14 as MRGPRX2/MRGPRB2 agonist (EC80 value of 2000 nM).[31]
For MRGPRB2, the pKi values of the compounds were determined using 1321N1 astrocytoma cells recombinantly expressing MRGPRB2 using Ca^2+ assays versus the MRGPRX2/MRGPRB2 agonist CST-14 (EC80 value, 2000 nM). For MRGPRX2, pKi values were determined using Ca^2+ assays performed in LN229 cells recombinantly overexpressing MRGPRX2 versus the agonist CST-14 (EC80 value, 800 nM). b Concentration-response curve of PSB-172656 in Ca^2+ assays using 1321N1 astrocytoma cells expressing MRGPRB2 versus CST-14 (EC80 value, 2000 nM), Ki value 0.302 ± 0.039 nM. Data are generated from 3 biological replicates, determined in duplicates. c A representative trace showing the effect of C48/80 (30 µg/mL) on a mouse tracheal ring in isometric force measurements using a wire-myograph system. d The contraction response of mouse trachea to C48/80 (30 µg/mL) was normalized to the contraction caused by methacholine (10 µM), a muscarinic receptors agonist. […]

One may read the Ki as a measure of affinity in units of concentration, obtained from inhibition or displacement. Regarding `CCc1c(C(C)C)[nH]c2nc3cc(F)c(F)cc3n2c1=O` [Compound 24, 3-ethyl-7,8-difluoro-2-isopropylbenzo[4,5]imidazo [1,2-a] pyrimidin-4(1H)-one], under “Ca2+ assays”, the “fold less potent at MRGPRB2 than at human MRGPRX2” value is 3 fold. For the same compound, the Ki (versus CST-14 (EC80 2000 nM)) came out at 0.302 nM.
